From article PMC9775191, “A Subset Screen of the Compounds Australia Scaffold Library Identifies 7-Acylaminodibenzoxazepinones as Potent and Selective Hits for Anti-Giardia Drug Discovery” (Biomedicines, 2022)
Read-outs that look alike come from different tables or passages of the source.

How the values were obtained:
[1] = test system: Giardia infections; settings: cited from earlier work; for clinical failure rates: 5-nitroimidazoles
[2] = test system: Neonatal foreskin fibroblast (NFF) cells; assay: Mammalian cell cytotoxicity assay (sulforhodamine B); format: cell-based, human; settings: for SI (48h Gd): Table S2, NFF vs 48 h Giardia IC50; for inhibition at 20 µM: ±SD
How it was run: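 Cytotoxicity against neonatal foreskin fibroblasts was read by sulforhodamine B staining, with media-only, untreated, DMSO-vehicle and chloroquine controls. Dose–response started at 100 µM. Selectivity index = NFF IC50 divided by G. duodenalis BRIS/91/HEPU/1279 IC50.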

[3] = test system: G. duodenalis BRIS/91/HEPU/1279; assay: Primary Giardia screen at 10 µM (live-cell imaging, automated counting); format: cell-based, Giardia duodenalis; settings: for inhibition at 10 µM: Giardia duodenalis
How it was run: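 One concentration, 10 μM, is screened per compound in singlicate under microaerophilic gas (3% O2, 5% CO2, N2). Inhibition comes from automated image-based counts at 24 and 48 h, relative to 0.2% DMSO controls.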

[4] = test system: G. duodenalis BRIS/91/HEPU/1279; assay: Giardia dose response assay, assemblage B; format: cell-based, Giardia duodenalis; settings: for IC50: Giardia duodenalis
How it was run: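 Assemblage B trophozoites (BRIS/91/HEPU/1279, 1.5 × 10^4 parasites/well) faced 8–12-point doubling dilutions in duplicate, incubated 48 h at 37 °C under 3% O2, 5% CO2 in N2. Parasites were imaged and counted at 24 and 48 h. Growth inhibition was taken versus vehicle controls minus background, with IC50 by log-linear interpolation.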

[5] = test system: BRIS/87/HEPU/713; assay: Giardia dose response assay, assemblage A; format: cell-based; settings: Giardia duodenalis
Protocol: (§1) In these assays, compounds were serially diluted (8–12-point doubling dilutions in technical duplicate) in DMSO control media, with all test wells inoculated with parasites (1.5 × 10^4 parasites for BRIS/91/HEPU/1279 and BRIS/91/HEPU/1279m1, or 3 × 10^3 parasites for BRIS/87/HEPU/713). Albendazole (positive control) plates were run with each experiment. All plates were sealed in culture chambers and gassed with 3% O2, 5% CO2 in N2 and incubated at 37 °C for 48 h, with parasites imaged and enumerated at 24 and 48 h. Growth inhibition was calculated as a percentage relative to vehicle controls minus any background as described above and IC50 values were determined using log-linear interpolation as previously described. […] Statistical comparison of IC50 values when required were performed using Student’s t-test.

[6] = test system: BRIS/91/HEPU/1279m1; assay: Giardia dose response assay, metronidazole resistant line; format: cell-based; settings: Giardia duodenalis
Protocol: as §1

[7] = test system: Escherichia coli (ATCC 25922); assay: Anti-bacterial activity assay; format: cell-based; settings: for inhibition at 50 µM: Escherichia coli, ATCC25922, 50 µM, read-out: Bacterial Inhibition E. coli
How it was run: (§2)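 Compounds tested once at 50 µM in duplicate against mid-log cultures at 5 × 10^5 CFU/mL, incubated 18 h at 37 °C without shaking. Growth read by absorbance at 600 nm; percentage inhibition calculated relative to bacteria-only wells. Vancomycin (Gram-positive) and colistin (Gram-negative) served as plate controls.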

[8] = test system: BRIS/91/HEPU/1279; assay: Combination studies (isobolograms); format: cell-based, Giardia duodenalis; settings: 24 h
Protocol: The activity of each combination was assessed against BRIS/91/HEPU/1279. A total of 14, 8-point dose–response assays were performed with each combination in triplicate on at least two occasions in 96-well microtiter plates (1.5x10^4 BRIS/91/HEPU/1279 trophozoites per well). Plates were incubated in chambers gassed with 3% O2, 5% CO2 in N2 at 37 °C for 24 h before parasite growth was assessed by imaging. Media and vehicle controls were included on each plate. […] Isoboles were fitted using the standard hyperbolic function defined by the parameter I as previously described, where Positive values of I indicate synergy, negative values indicate antagonism and addition occurs when I equals 0. The significance of the difference of I from zero was assessed with Student’s t test.

[9] = In vivo tolerability assessment
Protocol: In brief, separate groups of three mice were administered single, increasing doses of compound via oral gavage to examine tolerability. […] After a week of observation, mice in each group were euthanized and samples collected for pathology assessment. The highest dose assessed was 50 mg/kg. To further assess the safety of SN00797640, this highest dose was also administered to a final group of three mice, daily for three days.

[10] = test system: Acinetobacter baumannii (ATCC 19606); assay: Anti-bacterial activity assay; format: cell-based; settings: ATCC19606, 50 µM
How it was run: as §2

[11] = test system: Klebsiella pneumoniae (ATCC 700603); assay: Anti-bacterial activity assay; format: cell-based; settings: ATCC700603, 50 µM, read-out: Bacterial Inhibition K. pneumoniae
How it was run: as §2

[12] = test system: methicillin resistant Staphylococcus aureus (ATCC 43300); assay: Anti-bacterial activity assay; format: cell-based; settings: Staphylococcus aureus, ATCC43300, 50 µM; read-out: Bacterial Inhibition S. aureus
How it was run: as §2

[13] = 24 h, first singlicate assay, read-out: % Inhibition n=1 24h
[14] = 24 h, re-assessment, read-out: % Inhibition n=2 24h
[15] = 24 h, read-out: Average % Inhibition 24h
[16] = 48 h, first singlicate assay, read-out: % Inhibition n=1 48h
[17] = 48 h, re-assessment, read-out: % Inhibition n=2 48h
[18] = 48 h, read-out: Average % Inhibition 48h
[19] = 24 h, read-out: G. duodenalis IC50 24h, Table S2, 24 h, ±SD, max 10 µM
[20] = 48 h, Table S2, 48 h, ±SD, max 10 µM, read-out: G. duodenalis IC50 48h

| Structure (SMILES) | clinical failure rates [1] | inhibition at 10 µM [3, 13] [%] | inhibition at 10 µM [3, 14] [%] | inhibition at 10 µM [3, 15] [%] | inhibition at 10 µM [3, 16] [%] | inhibition at 10 µM [3, 17] [%] | inhibition at 10 µM [3, 18] [%] | IC50 [4, 19] [nM] | SI (48h Gd) [2] | inhibition at 50 µM [7] [%] | IC50 [4, 20] [nM] | inhibition at 20 µM ([2]; Homo sapiens, NFF) [%] | inhibition at 50 µM [10] [%] | inhibition at 50 µM [11] [%] | inhibition at 50 µM [12] [%] | other results |
| --- | --- | --- | --- | --- | --- | --- | --- | --- | --- | --- | --- | --- | --- | --- | --- | --- |
| CCCSc1ccc2nc(NC(=O)OC)[nH]c2c1 [Albendazole] | – | – | – | – | – | – | – | – | – | – | – | – | – | – | – | treatment efficacy rates [1]: 25–90% |
| Cc1ncc([N+](=O)[O-])n1CCO [Metronidazole, reference compound] | 40–70% | – | – | – | – | – | – | – | – | – | – | – | – | – | – | IC50 ([2]; Homo sapiens, NFF, mean ± SD, read-out: IC50 NFF): > 75000 nM |
| Cc1ccc(C(=O)Nc2ccc3c(c2)N(C)C(=O)c2ccccc2O3)cc1 [SN00797640] | – | 97.5 | 83.1 | 90.3 | 96.3 | 97.2 | 96.8 | 380 ± 50 | > 55 | 3.64 | – | – | – | – | – | Average % Inhibition 48h ([3]; 48 h): > 90%; fold more potent than metronidazole ([4]; 48 h IC50): > 10 fold; IC50 ([4]; 48 h, BRIS/91/HEPU/1279, 48 h, mean ± SD, read-out: IC50 Giardia (48 h)): 180 nM; IC50 ([4]; 48 h, BRIS/91/HEPU/1279, 48 h, read-out: 48 h IC50): 181 nM; IC50 ([5]; 48 h, read-out: 48 h IC50): 115 ± 30 nM; IC50 ([5]; read-out: 24 h IC50, 24 h): 164 ± 11 nM; IC50 ([6]; 24 h, read-out: 24 h IC50): 160 ± 27 nM; IC50 ([6]; 48 h, read-out: 48 h IC50): 124 ± 3 nM; Bacterial Inhibition E. coli ([7]; 50 µM): < 5%; interaction parameter I ([8]; combined with albendazole, synergistic): 4.7; interaction parameter I ([8]; combined with metronidazole, additive): −0.3; tolerability ([9]; oral gavage, up to 50 mg/kg daily for three consecutive days): well tolerated with no adverse reactions detected; histological analysis of liver and kidney samples ([9]; test animals of tolerability study): no toxicity |
| Cc1ccc(C(=O)Nc2cc(-c3nc(C)cs3)sc2C)cc1 [SN00798457, Cc1ccc(cc1)C(=O)Nc1cc(sc1C)c1scc(C)n1] | – | 39.3 | 16.7 | 28 | 60 | 52.2 | 56.1 | > 10000 | – | 1.98 | > 10000 | 16.3 ± 20.4 | -2.12 | 0.63 | -16.6 | – |
| CC(C)c1ccc(Nc2ncccc2S(=O)(=O)N2CCCC2)cc1 [SN00799289, CC(C)c1ccc(cc1)Nc1ncccc1S(=O)(=O)N1CCCC1] | – | 43.9 | 10.1 | 27 | 73.3 | 41.7 | 57.5 | > 10000 | > 5 | 1.89 | 3360 ± 1520 | 11.4 ± 13.4 | 4.74 | 14.4 | 3.06 | – |
| CCS(=O)(=O)CCn1c([N+](=O)[O-])cnc1C [tinidazole] | 40–70% | – | – | – | – | – | – | – | – | – | – | – | – | – | – | – |
